According to patent US5827860A, “Peptidyl heterocycles useful in the treatment of thrombin related disorders” (Ortho Pharmaceutical Corporation, priority 1995, dated 1998):

Test: Ex vivo bioavailability assay, drug administered i.v. and p.o.
Conditions: male rats, p.o. vs i.v., drug in plasma extrapolated from thrombin inhibition
Experimental: Bioavailability was determined by an ex vivo assay which incorporated hydrolysis rates from drug administered both i.v. and p.o. In this assay male rats were prepared as described above with a teflon tube implanted in their femoral artery.
A standard curve was generated by adding of drug or vehicle (100 μL) to whole blood (900 μL) followed by incubating (5 min) and centrifuging to obtain plasma. The percentage of thrombin inhibition was calculated by comparing the V0 of the vehicle to that of the drug treated samples. Datum from several runs were normalized with a statistical package (SAS) to generate a standard curve.
The percentage of thrombin inhibition in the treated animals was calculated by comparing the V0 prior to treatment with the V0 obtained from samples collected after treatment. The percent inhibition was applied to the standard curve (generated above) using the statistical package (SAS) and the quantity of drug in the sample was extrapolated.
Bioavailability (Bioavail.) was calculated from the plots of the extrapolated drug in sample vs. time for both i.v. and p.o. administration using the following equation:
%Bioavail.=(i.v. dose administered/p.o. dose administered)×(area
under p.o. curve/area under curve i.v.)

Bioavail. [%]	Structure (SMILES)
1.2	CN[C@H](Cc1ccccc1)C(=O)N1CCC[C@H]1C(=O)N[C@@H](CCCNC(=N)N)C(=O)c1nc2ccccc2s1 [Compound 1, N-METHYL-D-PHENYLALANYL-N-[4-[(AMINOIMINOMETHYL)AMINO]-1S-[(BENXOTHIAZOL-2- YL)CARBONYL]BUTYL]-L-PROLINAMIDE]

Test: not given
Conditions: rat, in vivo, iv

t1/2 (time to half plasma elimination) [min]	Structure (SMILES)
19	CN[C@H](Cc1ccccc1)C(=O)N1CCC[C@H]1C(=O)N[C@@H](CCCNC(=N)N)C(=O)c1nc2ccccc2s1 [Compound 1, N-METHYL-D-PHENYLALANYL-N-[4-[(AMINOIMINOMETHYL)AMINO]-1S-[(BENXOTHIAZOL-2- YL)CARBONYL]BUTYL]-L-PROLINAMIDE]
16	CNC(Cc1ccccc1)C(=O)N1CCCC1C(=O)NC(CCCNC(=N)N)C(=O)c1nccs1 (centres unmarked) [Compound 4]
43	CN[C@H](Cc1ccccc1)C(=O)N1CCC[C@H]1C(=O)N[C@@H](CCCNC(=N)N)C(=O)c1nc2ccc(C(=O)OC)cc2s1 [Compound 12]
25	CN[C@H](Cc1ccccc1)C(=O)N1CCC[C@H]1C(=O)N[C@@H](CCCNC(=N)N)C(=O)c1nc2ccc(C(=O)O)cc2s1 [Compound 13]
16	CN[C@H](Cc1ccccc1)C(=O)N1CCC[C@H]1C(=O)N[C@@H](CCCNC(=N)N)C(=O)c1nc2ccc(CO)cc2s1 [Compound 15]
8	CN[C@H](Cc1ccccc1)C(=O)N1CCC[C@H]1C(=O)N[C@@H](CCCNC(=N)N)C(=O)c1nc2ccc(F)cc2s1 [Compound 17]
14	CCOC(=O)c1csc(C(=O)[C@H](CCCNC(=N)N)NC(=O)[C@@H]2CCCN2C(=O)[C@@H](Cc2ccccc2)NC)n1 [Compound 19]
5	CNC(Cc1ccccc1)C(=O)N1CCCC1C(=O)NC(CCCNC(=N)N)C(=O)c1nc2ccccc2[nH]1 (centres unmarked) [Compound 21]
14	CN[C@H](CC1CCCCC1)C(=O)N1CCC[C@H]1C(=O)N[C@@H](CCCNC(=N)N)C(=O)c1nc2ccccc2s1 [Compound 29, N-METHYL-D-CYCLOHEXYLALANYL-N-[4-[(AMINOIMINOMETHYL)AMINO]-1S-[(BENXOTHIAZOL-2-YL)CARBONYL]BUTYL]-L-PROLINAMIDE]
6	CN[C@H](Cc1c(F)c(F)c(F)c(F)c1F)C(=O)N1CCC[C@H]1C(=O)N[C@@H](CCCNC(=N)N)C(=O)c1nc2ccccc2s1 [Compound 30]
19	CN[C@H](Cc1ccc(F)cc1)C(=O)N1CCC[C@H]1C(=O)N[C@@H](CCCNC(=N)N)C(=O)c1nc2ccccc2s1 [Compound 32, N-METHYL-D-(4-FLUOROPHENYL)ALANYL-N-[4-[(AMINOIMINOMETHYL)AMINO]-1S-[(BENXOTHIAZOL-2-YL)CARBONYL]BUTYL]-L-PROLINAMIDE]
18	CNC(C(=O)N1CCCC1C(=O)NC(CCCNC(=N)N)C(=O)c1nc2ccccc2s1)c1ccccc1 [Compound 33, N-METHYL-D-PHENYLGLYCYL-N-[4-[(AMINOIMINOMETHYL)AMINO]-1S-[(BENXOTHIAZOL-2- YL)CARBONYL]BUTYL]-L-PROLINAMIDE]
11	CC(=O)N[C@H](Cc1ccccc1)C(=O)N1CCC[C@H]1C(=O)N[C@@H](CCCNC(=N)N)C(=O)c1nc2ccccc2s1.O=C(O)C(F)(F)F [Compound 35]
42	CN[C@@H](C(=O)N1CCC[C@H]1C(=O)N[C@@H](CCCNC(=N)N)C(=O)c1nc2ccccc2s1)C1CCCCC1 [Compound 37, N-METHYL-D-CYCLOHEXYLGLYCYL-N-[4-[(AMINOIMINOMETHYL)AMINO]-1S-[(BENXOTHIAZOL-2-YL)CARBONYL]BUTYL]-L-PROLINAMIDE]
17	CN[C@H](Cc1ccccc1)C(=O)N1CCC[C@H]1C(=O)N[C@@H](CCCNC(=N)N)C(=O)c1nc2c(s1)CCCC2 [Compound 51]
5	CN[C@H](Cc1ccccc1)C(=O)N1CCC[C@H]1C(=O)N[C@@H](CCCNC(=N)N)C(=O)c1nc2ccc3ccccc3c2s1 [Compound 52]
15	CN[C@H](Cc1ccccc1)C(=O)N1CCC[C@H]1C(=O)N[C@@H](CCCNC(=N)N)C(=O)c1nc(C(=O)O)cs1 [Compound 54]

Test: Ex vivo assay for duration of action after i.v. dosing (time to half plasma elimination)
Conditions: male rats, from slope of V0 vs. time of plasma thrombin inhibition
Experimental: An ex vivo assay was conducted to determine the duration of action of the compounds of Formula I. For this i.v. assay male rats (Long Evans, 350-500 g) were implanted with a teflon cannulae via the femoral artery while under anesthesia (pentobarbital i.p., 35 mg/kg). […] The animals were allowed to recover for at least 24 h after the surgical procedure.
The test compound was dispersed in water and delivered to the animal (0.25 mL) via the femoral vein. […] A plasma sample was obtained by centrifuging the blood at 10,000 rpm for 5 min. This sample is analyzed for thrombin inhibition using the chromogenic assay, described below.
Datum was collected over a 30 min period and the initial rate of substrate hydrolysis (V0 (mOD/min)) was calculated with an analysis program (Softmax, Molecular Devices).
The time to half plasma elimination (t 1/2) was calculated from the slope of V0 vs. time, using the following equation: t 1/2=-1.6 slope.

Structure (SMILES)	t1/2 (time to half plasma elimination) [min]
CN[C@H](Cc1ccccc1)C(=O)N1CCC[C@H]1C(=O)N[C@@H](CCCNC(=N)N)C(=O)c1nc2ccc(O)cc2s1 [Compound 25]	14
CNC(C(=O)N1CCC[C@H]1C(=O)N[C@@H](CCCNC(=N)N)C(=O)c1nc2ccccc2s1)c1ccccc1 (some centres unmarked) [Compound 34]	26
